# pIC50: −log10 of the molar value.
# Target: T1, BKB1 receptors (Homo sapiens, UniProt P46663)
# T1 construct: Human (IMR-90) lung fibroblast cells expressing native B1 receptors; endogenous in cells; host or cells: IMR-90 human lung fibroblasts, interleukin-treated to up-regulate BKB1 receptors
# T1 sequence (P46663 1-353): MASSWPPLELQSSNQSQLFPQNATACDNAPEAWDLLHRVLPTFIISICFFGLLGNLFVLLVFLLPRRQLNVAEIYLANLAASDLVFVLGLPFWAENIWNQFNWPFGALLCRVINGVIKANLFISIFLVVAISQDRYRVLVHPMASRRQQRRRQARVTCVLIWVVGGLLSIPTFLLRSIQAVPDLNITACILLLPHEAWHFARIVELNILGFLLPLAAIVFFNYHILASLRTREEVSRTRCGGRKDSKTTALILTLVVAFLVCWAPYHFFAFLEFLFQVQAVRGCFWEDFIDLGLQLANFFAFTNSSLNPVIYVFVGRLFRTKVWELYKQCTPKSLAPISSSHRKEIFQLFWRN
# Assay: Calcium mobilization assay (FLIPR), B1 receptors in IMR-90 cells
# Format: cell-based
# Details: Human IMR-90 lung fibroblast cells, up-regulated BKB1 receptors, agonist desArg10-kallidin (DAKD) 2 to 8 nM, calcium-dependent fluorescence
# Procedure: Calcium mobilization assay (FLIPR)—Human (IMR-90) lung fibroblast cells expressing native B1 receptors were harvested by trypsinization and seeded into black wall/clear bottom 96-well plates (Costar 3904; Corning Life Sciences, Acton, Mass.) at approximately 13,000 cells/well. After 1 day incubation, cells were treated with […] (0.35 ng/ml) in 10% FBS/MEM for 2 h to up-regulate BKB1 receptors. Induced cells were loaded with fluorescent calcium indicator by incubation with 2.3 μM Fluo-4/acetoxymethyl ester (Invitrogen) at 37° C. for 1.5 h in the presence of an anion transport inhibitor (2.5 mM probenecid in 1% FBS/MEM). Extracellular dye was removed by washing with assay buffer (2.5 mM probenecid, 0.1% BSA in 20 mM HEPES/HBSS without bicarbonate or phenol red, pH 7.5) and cell plates were kept in the dark until used. Test compounds were assayed at eight concentrations in triplicate. Addition of test compounds to the cell plate and incubation for 5 min at 35° C., followed by the addition of 2 to 8 nM final BK1 agonist desArg^10-kallidin (DAKD, 3×EC50) was carried out in the fluorimetric imaging plate reader (FLIPR; Molecular Devices) while continuously monitoring calcium-dependent fluorescence.
row,pIC50,SMILES
1,5.49,"CC(C(=O)NCCNCc1ccccc1)c1ccc(Oc2cccc3ccccc23)cc1 (stereo not drawn) [Compound 61, N-[2-(benzylamino)ethyl]-2-[4-(naphthalen-1-yloxy)phenyl]propanamide]"
2,5.42,"CC(C(=O)NCCCN(C)C)c1ccc(Oc2cccc3ccccc23)cc1 (stereo not drawn) [Compound 62, N-[3-(dimethylamino)propyl]-2-[4-(naphthalen-1-yloxy)phenyl]propanamide]"
3,4.90,"CC(C(=O)Nc1ccc(Cc2ccncc2)cc1)c1ccc(OS(=O)(=O)C(F)(F)F)cc1 (stereo not drawn) [Compound 48, 4-{1-oxo-1-[4-(pyridin-4-ylmethyl)propan-2-yl]amino}phenyl trifluoromethanesulfonate]"

# Second part, the compound before the results:
row,SMILES,pIC50
1,"CC1CC(C)CN(CCNC(=O)C(C)c2ccc(Nc3nc(C(F)(F)F)cs3)cc2)C1 (stereo not drawn) [Compound 42, N-[2-(3,5-dimethylpiperidin-1-yl)ethyl]-2-(4-{[4-(trifluoromethyl)-1,3-thiazol-2-yl]amino}phenyl)propanamide]",5.18
2,"CC(C(=O)Nc1ccncn1)c1ccc(N2CCCCC2)cc1 (stereo not drawn) [Compound 69, 2-[4-(piperidin-1-yl)phenyl]-N-(pyrimidin-4-yl)propanamide]",4.85
3,"CC(C(N)=O)c1cccc(Nc2ccc3c(c2)OC(F)(F)O3)c1 (stereo not drawn) [Compound 76, 2-{3-[(2,2-difluoro-1,3-benzodioxol-5-yl)amino]phenyl}propanamide]",5.05
4,"CC(C(=O)Nc1ccncc1)c1ccc(OS(=O)(=O)C(F)(F)F)cc1 (stereo not drawn) [Compound 47, 4-[1-oxo-1-(pyridin-4-ylamino)propan-2-yl]phenyl trifluoromethanesulfonate]",5.49
5,"Cc1cc(NC(=O)C(C)c2ccc(CC(C)C)cc2)n(C)n1 (stereo not drawn) [Compound 40, N-(1,3-dimethyl-1H-pyrazol-5-yl)-2-[4-(2-methylpropyl)phenyl]propanamide]",5.68
6,"CC(C(=O)NCCN1CCCC1)c1cccc(Oc2cccc(OC(F)(F)F)c2)c1 (stereo not drawn) [Compound 19, N-[(2-pyrrolidin-1-yl)ethyl]-2-{3-[3-(trifluoromethoxy)phenoxy]phenyl}propanamide]",5.11

# Source: patent US20120316169A1, “2-ARYL-PROPIONAMIDE DERIVATIVES USEFUL AS BRADYKININ RECEPTOR ANTAGONISTS AND PHARMACEUTICAL COMPOSITIONS CONTAINING THEM” (DOMPÉ S.P.A., priority 2009, published 2012)
